One test concerns the target DNA (cytosine-5)-methyltransferase 1 (Homo sapiens) (UniProt P26358). Put plainly: Inhibition of DNMT1 in human HCT116 cells at 5 uM after 24 hrs by Western blot analysis relative to control. It is filed as cell-based. The conditions noted are these: HCT-116. On the technique in general: Immunoblotting shows a protein as a band on a membrane.
Sequence of DNA (cytosine-5)-methyltransferase 1 (Homo sapiens) (P26358 whole entry): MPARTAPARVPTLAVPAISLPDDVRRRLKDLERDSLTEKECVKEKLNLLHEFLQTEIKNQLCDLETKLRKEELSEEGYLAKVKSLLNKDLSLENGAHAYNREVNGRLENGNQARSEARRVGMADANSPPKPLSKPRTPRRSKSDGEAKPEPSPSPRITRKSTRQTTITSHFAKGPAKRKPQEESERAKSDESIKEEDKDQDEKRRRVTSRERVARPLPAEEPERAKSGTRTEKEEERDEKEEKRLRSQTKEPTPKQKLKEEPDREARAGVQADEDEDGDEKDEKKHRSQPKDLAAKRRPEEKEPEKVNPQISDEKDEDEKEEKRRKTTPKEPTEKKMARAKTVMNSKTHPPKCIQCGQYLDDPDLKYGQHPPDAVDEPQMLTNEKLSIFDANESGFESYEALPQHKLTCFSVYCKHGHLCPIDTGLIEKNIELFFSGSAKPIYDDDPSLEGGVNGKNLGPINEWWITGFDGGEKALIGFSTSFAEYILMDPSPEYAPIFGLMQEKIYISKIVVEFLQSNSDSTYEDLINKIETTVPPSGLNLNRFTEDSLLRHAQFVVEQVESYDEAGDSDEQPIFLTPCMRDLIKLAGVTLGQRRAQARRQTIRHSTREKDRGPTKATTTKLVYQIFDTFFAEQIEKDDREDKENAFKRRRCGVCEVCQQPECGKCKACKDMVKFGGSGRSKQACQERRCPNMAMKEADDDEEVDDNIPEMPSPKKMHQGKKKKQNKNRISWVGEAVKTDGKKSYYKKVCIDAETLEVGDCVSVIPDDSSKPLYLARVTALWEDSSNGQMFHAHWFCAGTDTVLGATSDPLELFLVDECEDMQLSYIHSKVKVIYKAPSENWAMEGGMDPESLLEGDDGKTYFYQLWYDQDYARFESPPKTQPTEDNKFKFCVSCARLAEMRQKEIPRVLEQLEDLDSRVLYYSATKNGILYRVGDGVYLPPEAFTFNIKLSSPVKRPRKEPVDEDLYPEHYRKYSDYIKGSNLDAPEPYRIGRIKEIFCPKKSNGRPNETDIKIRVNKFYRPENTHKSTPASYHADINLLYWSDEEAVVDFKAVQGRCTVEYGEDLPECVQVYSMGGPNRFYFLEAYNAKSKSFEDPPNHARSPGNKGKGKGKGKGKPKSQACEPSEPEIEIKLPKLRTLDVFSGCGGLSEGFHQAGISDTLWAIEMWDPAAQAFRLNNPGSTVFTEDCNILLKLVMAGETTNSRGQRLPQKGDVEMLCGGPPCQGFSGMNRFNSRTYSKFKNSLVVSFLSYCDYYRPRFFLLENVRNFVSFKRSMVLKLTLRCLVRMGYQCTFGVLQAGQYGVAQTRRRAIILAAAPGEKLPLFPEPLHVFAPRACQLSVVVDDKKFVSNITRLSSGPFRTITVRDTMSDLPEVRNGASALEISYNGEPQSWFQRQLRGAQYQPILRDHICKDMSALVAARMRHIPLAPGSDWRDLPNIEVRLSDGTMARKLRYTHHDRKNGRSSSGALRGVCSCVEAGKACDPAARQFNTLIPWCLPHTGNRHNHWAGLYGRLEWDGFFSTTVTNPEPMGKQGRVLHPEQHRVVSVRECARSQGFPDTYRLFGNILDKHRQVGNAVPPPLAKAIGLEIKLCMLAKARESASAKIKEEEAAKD
In turn, `C[n+]1ccc(Nc2cccc(C(=O)Nc3ccc(Nc4ccnc5ccc(N)cc45)cc3)c2)cc1` displayed an inhibition of 80%.
`C/C(=N\N=C(N)N)c1ccc(C(=O)Nc2ccc(Nc3ccnc4ccc(N(C)C)cc34)cc2)cc1` came in with an inhibition of 34%.
The same measure, in the same setting: to `C[n+]1ccc(Nc2cccc(C(=O)Nc3ccc(Nc4ccnc5ccccc45)cc3)c2)cc1` belongs 80%; to `CN(C)c1ccc2nccc(Nc3ccc(C(=O)Nc4ccc(Nc5cc[n+](C)cc5)cc4)cc3)c2c1`, 16%.
`Cc1cc(Nc2ccc(NC(=O)c3ccc(Nc4ccnc5ccc(N(C)C)cc45)cc3)cc2)nc(N)n1` yielded an inhibition of 43%.
Same read-out and setting: to `C[n+]1ccc(Nc2ccc(C(=O)Nc3ccc(Nc4ccnc5ccc(N)cc45)cc3)cc2)cc1` belongs 0%; to `Cc1cc(Nc2ccc(NC(=O)c3ccc(Nc4ccnc5ccc(Cl)cc45)cc3)cc2)nc(N)n1`, 30%.
Turning to `C[n+]1ccc(Nc2ccc(NC(=O)c3ccc(Nc4ccnc5ccc(N)cc45)cc3)cc2)cc1`, the inhibition is 0%.
`CN(C)c1ccc2nccc(Nc3ccc(NC(=O)c4ccc(Nc5cc[n+](C)cc5)cc4)cc3)c2c1` registered an inhibition of 45%.
`CN(C)c1ccc2nccc(Nc3ccc(C(=O)Nc4cccc(Nc5cc[n+](C)cc5)c4)cc3)c2c1` yielded an inhibition of 0%.
Same read-out and setting: to `Cc1cc(Nc2ccc(NC(=O)c3ccc(Nc4ccnc5c(F)c(F)c(F)cc45)cc3)cc2)nc(N)n1` belongs 18%.
`Cc1cc(Nc2ccc(NC(=O)c3ccc(Nc4ccnc5ccccc45)cc3)cc2)nc(N)n1` had an inhibition of 97%.
On the same count and under the same terms, to `C/C(=N\N=C(N)N)c1cccc(NC(=O)c2ccc(Nc3ccnc4ccc(N(C)C)cc34)cc2)c1` belongs 0%.
Still for that read-out and setting: to `CN(C)c1ccc2nccc(Nc3ccc(NC(=O)c4cccc(Nc5cc[n+](C)cc5)c4)cc3)c2c1` belongs 75%.
Same read-out and setting: then `C[n+]1ccc(Nc2cccc(NC(=O)c3ccc(Nc4ccnc5ccccc45)cc3)c2)cc1`, with 0%; and `Cc1cc(Nc2ccc(C(=O)Nc3ccc(Nc4ccnc5ccccc45)cc3)cc2)nc(N)n1`, with 75%.
For `C/C(=N\N=C(N)N)c1ccc(NC(=O)c2ccc(Nc3ccnc4ccc(N(C)C)cc34)cc2)cc1`, the inhibition was 30%.
On the same count and under the same terms, to `C[n+]1ccc(Nc2cccc(NC(=O)c3ccc(Nc4ccnc5ccc(N)cc45)cc3)c2)cc1` belongs 2%; to `Cc1cc(Nc2cccc(C(=O)Nc3ccc(Nc4ccnc5ccccc45)cc3)c2)nc(N)n1`, 85%; to `C/C(=N\N=C(N)N)c1cccc(C(=O)Nc2ccc(Nc3ccnc4ccc(N(C)C)cc34)cc2)c1`, 40%.
The same measure, in the same setting: to `C[n+]1ccc(Nc2ccc(C(=O)Nc3ccc(Nc4ccnc5ccccc45)cc3)cc2)cc1` belongs 0%.
Still for that read-out and setting: to `C[n+]1ccc(Nc2ccc(NC(=O)c3ccc(Nc4ccnc5ccccc45)cc3)cc2)cc1` belongs 0%.

In the next test the test system is HCT-116. Nature of the test: Cytotoxicity against human HCT116 cells assessed as viability. It is filed as functional. The conditions noted are these: read-out: TD50 (the source's name).
With `C[n+]1ccc(Nc2cccc(C(=O)Nc3ccc(Nc4ccnc5ccc(N)cc45)cc3)c2)cc1`, the CC50 worked out at 25 µM.
In the case of `C/C(=N\N=C(N)N)c1ccc(C(=O)Nc2ccc(Nc3ccnc4ccc(N(C)C)cc34)cc2)cc1`, the CC50 was 25 µM.
Same read-out and setting: then `C[n+]1ccc(Nc2cccc(C(=O)Nc3ccc(Nc4ccnc5ccccc45)cc3)c2)cc1`, with 25 µM; and `CN(C)c1ccc2nccc(Nc3ccc(C(=O)Nc4ccc(Nc5cc[n+](C)cc5)cc4)cc3)c2c1`, with 50 µM; and `Cc1cc(Nc2ccc(NC(=O)c3ccc(Nc4ccnc5ccc(N(C)C)cc45)cc3)cc2)nc(N)n1`, with 25 µM.
Same read-out and setting: then `C[n+]1ccc(Nc2ccc(C(=O)Nc3ccc(Nc4ccnc5ccc(N)cc45)cc3)cc2)cc1`, with 50 µM.
The same measure, in the same setting: then `Cc1cc(Nc2ccc(NC(=O)c3ccc(Nc4ccnc5ccc(Cl)cc45)cc3)cc2)nc(N)n1`, with 25 µM.
In the case of `C[n+]1ccc(Nc2ccc(NC(=O)c3ccc(Nc4ccnc5ccc(N)cc45)cc3)cc2)cc1`, the CC50 was 50 µM.
Same read-out and setting: then `CN(C)c1ccc2nccc(Nc3ccc(NC(=O)c4ccc(Nc5cc[n+](C)cc5)cc4)cc3)c2c1`, with 50 µM; and `CN(C)c1ccc2nccc(Nc3ccc(C(=O)Nc4cccc(Nc5cc[n+](C)cc5)c4)cc3)c2c1`, with 25 µM; and `Cc1cc(Nc2ccc(NC(=O)c3ccc(Nc4ccnc5c(F)c(F)c(F)cc45)cc3)cc2)nc(N)n1`, with 25 µM.
Regarding `Cc1cc(Nc2ccc(NC(=O)c3ccc(Nc4ccnc5ccccc45)cc3)cc2)nc(N)n1`, the CC50 is 25 µM.
Turning to `C/C(=N\N=C(N)N)c1cccc(NC(=O)c2ccc(Nc3ccnc4ccc(N(C)C)cc34)cc2)c1`, the CC50 was found to be 25 µM.
Regarding `CN(C)c1ccc2nccc(Nc3ccc(NC(=O)c4cccc(Nc5cc[n+](C)cc5)c4)cc3)c2c1`, the CC50 was 25 µM.
On the same count and under the same terms, to `C[n+]1ccc(Nc2cccc(NC(=O)c3ccc(Nc4ccnc5ccccc45)cc3)c2)cc1` belongs 12.5 µM; to `Cc1cc(Nc2ccc(C(=O)Nc3ccc(Nc4ccnc5ccccc45)cc3)cc2)nc(N)n1`, 25 µM; to `C/C(=N\N=C(N)N)c1ccc(NC(=O)c2ccc(Nc3ccnc4ccc(N(C)C)cc34)cc2)cc1`, 25 µM.
As to `C[n+]1ccc(Nc2cccc(NC(=O)c3ccc(Nc4ccnc5ccc(N)cc45)cc3)c2)cc1`, the CC50 was determined as 12.5 µM.
Take `Cc1cc(Nc2cccc(C(=O)Nc3ccc(Nc4ccnc5ccccc45)cc3)c2)nc(N)n1`: the CC50 was 25 µM.
Still for that read-out and setting: to `C/C(=N\N=C(N)N)c1cccc(C(=O)Nc2ccc(Nc3ccnc4ccc(N(C)C)cc34)cc2)c1` belongs 25 µM; to `C[n+]1ccc(Nc2ccc(C(=O)Nc3ccc(Nc4ccnc5ccccc45)cc3)cc2)cc1`, 12.5 µM.
Take `C[n+]1ccc(Nc2ccc(NC(=O)c3ccc(Nc4ccnc5ccccc45)cc3)cc2)cc1`: the CC50 stood at 25 µM.

Broadly, the inhibition is the share of the control response that was lost under treatment. Read a low inhibition as a weak effect.

The record behind these values is ChEMBL document CHEMBL2384925, “Structure-activity relationships for 4-anilinoquinoline derivatives as inhibitors of the DNA methyltransferase enzyme DNMT1” (2013).
